Source: publication PMC6423055, “Cathelicidins PMAP-36, LL-37 and CATH-2 are similar peptides with different modes of action” (Scientific Reports, 2019)
Where two headings read alike, the source gives them in different places. Positions of bridges follow the written chain, without caps; N, C: chain ends. Chains are numbered I, II in the order given. No end group written: not given here.

How the values were obtained:
Escherichia coli O78 [1] = conditions: for Antibacterial activity against E. coli O78 compared with parent or dimeric counterpart: N = 3–7; for Minimal Bactericidal Concentration (MBC): O78, 3 h
[2] = tested on: LPS-induced NO production by RAW264.7 cells; type: cell-based, murine; conditions: 100 ng/ml LPS O111:B4, 24 h, Griess assay, compared with full-length PMAP-36
[3] = tested on: LPS-induced TNFα secretion by RAW264.7 cells; assay: LPS stimulation, TNFα release (ELISA); type: cell-based, murine; conditions: for LPS neutralization, TNFα secretion: compared with full-length PMAP-36
[4] = Isothermal titration calorimetry, peptide binding to LPS; set-up: species or system Escherichia coli; conditions: ITC, 37 °C
Procedure: Isothermal titration calorimetry (ITC) was performed with the Low Volume NanoITC (TA Instruments-Waters LLC, New Castle, DE, USA) to determine interaction between LPS and the different peptides. 100 μM UltraPure LPS E. coli O111:B4 was diluted in MilliQ, after which 4x dilution in dPBS (Gibco) was made. Peptides were diluted to 800 μM in MilliQ, followed by 4-fold dilution in dPBS. The chamber was filled with 164 μl LPS, the peptide was titrated into the chamber with 1.96 μl every 300 seconds. Experiments were performed at 37 °C and analyzed using the Nano Analyze software (TA instruments-Waters LLC). All experiments were performed 2 times and corrected for buffer in buffer titration, after which the both experiments were averaged. Two independent models were used, except for LL-37 with one independent model fit, to determine the peptide-LPS interaction.

Escherichia coli O78 [5] = assay: Transmission electron microscopy of peptide-treated bacteria; type: cell-based; conditions: TEM, 5*10^8 CFU/ml, 60 min 37 °C
Procedure: (§1) For transmission electron microscopy (TEM), E. coli was used in a higher concentration, (5*10^8 CFU/ml). […] E. coli was incubated with the peptides at MBC concentration or sub-MBC concentration (4x below MBC concentration). After 60 min at 37 °C, fixative (4% glutaraldehyde, 5 mM CaCl2, 10 mM MgCl2 (all from Merck, Darmstadt, Germany) in 0.1 M sodium cacodylate buffer (Sigma) pH 7.4) was added 1:1 to the bacterial-peptide mixture and left for fixation overnight at 4 °C. Samples were washed three times in 0.1 M sodium cacodylate buffer and resuspended in 4% low melting point agarose (Sigma). Samples were post-fixed with 1% osmium tetroxide (Electron Microscopy Sciences (EMS), Hatfield, PA, USA), 1.5% K3Fe(CN)6 (Merck) and 65 mM sodium cacodylate buffer for 2 hours at 4 °C to improve the contrast. After extensive washing with distilled water (5 × 10 min), samples were incubated for 60 min with 0.5% uranyl acetate (EMS) at 4 °C to improve cytoplasmic contrast. After washing with distilled water (3 × 10 min), samples were dehydrated with increasing concentration ethanol and embedded in Epon. […] Morphological effects were quantified for around 100 cells per condition.

Escherichia coli O78 [6] = type: cell-based
Procedure: Escherichia coli O78 (E. coli) (Clinical isolate, Zoetis Animal Health, Kalamazoo, MI, USA) was grown in Mueller Hinton Broth (MHB) (Becton Dickinson, USA) to mid-logarithmic phase under constant shaking (200 RPM) at 37 °C. Antimicrobial activity of the peptides was tested using the colony count assay as described before. […] Next, 10-fold dilutions were made, of which 100 μl of the dilutions was spread to tryptic soy agar (TSA) (Oxoid, Basingstoke, UK) plates. Plates were incubated overnight at 37 °C and colonies were counted to determine the number of surviving bacteria. Minimal Bactericidal Concentration (MBC) was defined as ≤100 CFU/ml, the detection limit of the assay.
as §1

porcine red blood cells = assay: Hemolysis (heme release); conditions: peptide 0.63–40 μM, 60 min 37 °C, A405, 0.2% Triton X-100 = 100% lysis, N = 5–7
RAW264.7 cells = assay: Cell viability, WST-1 assay; conditions: WST-1, 24 h, peptide up to 40 μM, no peptide = 100% viability
porcine PBMCs = assay: Cell viability, WST-1 assay; conditions: WST-1, 24 h, effect at 20–40 μM, N = 6

Row | Compound | Antibacterial activity against E. coli O78 compared with parent or dimeric counterpart (Escherichia coli O78 [1]; 10^6 CFU/ml, 3 h 37 °C) | LPS neutralization, NO production [2] | LPS neutralization, TNFα secretion ([3]; 100 ng/ml LPS O111:B4, 24 h) | Minimal Bactericidal Concentration (MBC) (Escherichia coli O78 [1]) | further results
1 | I: Ac-RKKTRKRLKKIGKVLKWIPPIVGSIPLGCG / II: Ac-RKKTRKRLKKIGKVLKWIPPIVGSIPLGCG (disulfide I:29-II:29) [Peptide P7] | slightly more efficient than the full-length peptide | as strongly inhibited | as strongly inhibited |  | 
2 | Ac-KIGKVLKWIPPIVGSIPLGS [mP16] | lost its antibacterial activity completely |  |  |  | 
3 | Ac-RKKTRKRLKKIGKVLKWIPPIVGSIPLGS [mP7, monomeric analog of P7] | slightly increased compared to their dimeric counterparts | strongly reduced LPS neutralizing capacity | strongly reduced LPS neutralizing capacity |  | 
4 | Ac-KRLKKIGKVLKWIPPIVGSIPLGCG (disulfide (positions not given here)) [Peptide P12, PMAP-36 analog with N-terminal truncation of 11 amino acids] | slightly more efficient than the full-length peptide | as strongly inhibited | as strongly inhibited |  | 
5 | I: Ac-KIGKVLKWIPPIVGSIPLGCG / II: Ac-KIGKVLKWIPPIVGSIPLGCG (disulfide I:20-II:20) [Peptide P16] |  | completely lost its LPS neutralizing capacity | completely lost its LPS neutralizing capacity | > 40 µM | LPS binding [4]: still bound strongly to LPS
6 | Ac-KRLKKIGKVLKWIPPIVGSIPLGS [mP12, monomeric analog of P12] | identical to P12 | strongly reduced LPS neutralizing capacity | strongly reduced LPS neutralizing capacity |  | 
7 | I: Ac-GRFRRLRKKTRKRLKKIGKVLKWIPPIVGSIPLGCG / II: Ac-GRFRRLRKKTRKRLKKIGKVLKWIPPIVGSIPLGCG (disulfide I:35-II:35) [PMAP-36] |  |  |  | 5 to 10 µM | Concentration giving significant inhibition of E. coli O78 (Escherichia coli O78 [1]; 10^6 CFU/ml, 3 h 37 °C, vs no peptide control, N = 3–4): 2.5 µM; Morphological changes of E. coli O78 at sub-MBC (Escherichia coli O78 [5]; 4x below MBC (PMAP-36 5 μM, CATH-2 10 μM, LL-37 40 μM)): release of small vesicles; Morphological changes of E. coli O78 at MBC (Escherichia coli O78 [5]; MBC (PMAP-36 20 μM, CATH-2 40 μM, LL-37 160 μM)): DNA and ribosomes were clustered and located close to the inner membrane; MBC at higher density of bacteria (Escherichia coli O78 [6]; O78, 3 h): 20 µM; LPS binding [4]: strong LPS binding capacity; Concentration completely blocking TNFα secretion ([3]; 100 ng/ml LPS O111:B4, 24 h, N = 3): 10 µM; IC50 ([3]; 100 ng/ml LPS O111:B4, RAW264.7, 24 h, read-out: Concentration reducing LPS-induced macrophage activation for 50%): 5 µM
8 | RFGRFLRKIRRFRPKVTITIQGSARF-NH2 [CATH-2] |  |  |  | 5 to 10 µM | MBC at higher density of bacteria (Escherichia coli O78 [6]; O78, 3 h): 40 µM
9 | CC[C@H](C)[C@H](NC(=O)[C@H](CCCCN)NC(=O)[C@H](CCC(=O)O)NC(=O)[C@H](CCCCN)NC(=O)[C@H](CO)NC(=O)[C@H](CCCCN)NC(=O)[C@H](CCCNC(=N)N)NC(=O)[C@H](Cc1ccccc1)NC(=O)[C@H](Cc1ccccc1)NC(=O)[C@H](CC(=O)O)NC(=O)CNC(=O)[C@H](CC(C)C)NC(=O)[C@@H](N)CC(C)C)C(=O)NCC(=O)N[C@@H](CCCCN)C(=O)N[C@@H](CCC(=O)O)C(=O)N[C@@H](Cc1ccccc1)C(=O)N[C@@H](CCCCN)C(=O)N[C@@H](CCCNC(=N)N)C(=O)N[C@H](C(=O)N[C@H](C(=O)N[C@@H](CCC(N)=O)C(=O)N[C@@H](CCCNC(=N)N)C(=O)N[C@H](C(=O)N[C@@H](CCCCN)C(=O)N[C@@H](CC(=O)O)C(=O)N[C@@H](Cc1ccccc1)C(=O)N[C@@H](CC(C)C)C(=O)N[C@@H](CCCNC(=N)N)C(=O)N[C@@H](CC(N)=O)C(=O)N[C@@H](CC(C)C)C(=O)N[C@H](C(=O)N1CCC[C@H]1C(=O)N[C@@H](CCCNC(=N)N)C(=O)N[C@H](C(=O)N[C@@H](CCC(=O)O)C(=O)N[C@@H](CO)C(=O)O)[C@@H](C)O)C(C)C)[C@@H](C)CC)C(C)C)[C@@H](C)CC [LL-37] |  |  |  |  | Hemolysis of porcine erythrocytes (porcine red blood cells): less than 10%; Cytotoxicity against RAW264.7 cells (RAW264.7 cells): mildly cytotoxic; Cytotoxicity against porcine PBMCs (porcine PBMCs): not; MBC at higher density of bacteria (Escherichia coli O78 [6]; 5*10^8 CFU/ml E. coli O78, density used for TEM): 160 µM
10 | Ac-GRFRRLRKKTRKRLKKIGKVLKWIPPIVGSIPLGS [mP1, monomeric analog of PMAP-36, Cys35 replaced by serine, last amino acid deleted] | slightly increased compared to their dimeric counterparts | as efficient as the full-length peptide | as efficient as the full-length peptide |  | 
